Earlier results on 1 compound are cited in patent US8128952B2, “Ligand-mediated controlled drug delivery” (Clemson University Research Foundation, priority 2005, dated 2012).

As a reminder, the Kd is the equilibrium constant for the complex coming apart.

The target of this data set is human growth hormone (hGH) (Homo sapiens, UniProt P01241). The note with it: interaction between hGH and Zn-EDTA.
Chain of human growth hormone (hGH) (P01241 27-217): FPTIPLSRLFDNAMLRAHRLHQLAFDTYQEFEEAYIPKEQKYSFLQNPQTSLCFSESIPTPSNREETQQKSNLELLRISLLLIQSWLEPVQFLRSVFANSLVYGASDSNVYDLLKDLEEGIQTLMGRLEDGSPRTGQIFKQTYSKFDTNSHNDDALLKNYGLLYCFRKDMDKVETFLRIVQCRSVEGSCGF

With `O=C([O-])CN(CCN(CC(=O)O)CC(=O)O)CC(=O)[O-].[Zn+2]` [Zn-EDTA, Zn-ethylenediamine tetraacetic acid], the Kd was 380 µM.
